# Test results from ChEMBL document CHEMBL4811295, “The ester derivatives obtained by C-ring modification of podophyllotoxin induce apoptosis and inhibited proliferation in PC-3M cells via down-regulation of PI3K/Akt signaling pathway” (Bioorg Med Chem Lett, 2021).
# Key:
# Assay type in all cases: functional, cell-based
# [1] = system: PC-3M; assay: Cytotoxicity in human PC-3M cells assessed as inhibition of cell proliferation measured by CCK-8 assay
# [2] = system: HepG2; assay: Cytotoxicity in human HepG2 cells assessed as inhibition of cell proliferation measured by CCK-8 assay
# [3] = system: MCF7; assay: Cytotoxicity in human MCF7 cells assessed as inhibition of cell proliferation measured by CCK-8 assay
# [4] = system: A549; assay: Cytotoxicity in human A549 cells assessed as inhibition of cell proliferation measured by CCK-8 assay
# [5] = system: HMEC; assay: Cytotoxicity in human HMEC cells assessed as inhibition of cell proliferation measured by CCK-8 assay
SMILES,IC50 [1] [µM],IC50 [2] [µM],IC50 [3] [µM],IC50 [4] [µM],IC50 [5] [µM]
COc1cc([C@@H]2c3cc4c(cc3[C@H](OC(=O)[C@@H](NC(=O)OC(C)(C)C)C(C)C)[C@H]3COC(=O)[C@H]23)OCO4)cc(OC)c1OC,2.52,10.9,89.1,11.2,2.44
COc1cc([C@@H]2c3cc4c(cc3[C@H](OC(=O)c3ccc(Br)s3)[C@H]3COC(=O)[C@H]23)OCO4)cc(OC)c1OC,0.619,33.9,> 200,0.504,1.77
CCCCCCCCCCCCCCCC(=O)O[C@H]1c2cc3c(cc2[C@@H](c2cc(OC)c(OC)c(OC)c2)[C@H]2C(=O)OC[C@@H]21)OCO3,2.3,117,> 200,4.59,5.38
COc1cc([C@@H]2c3cc4c(cc3[C@H](OC(=O)[C@@H]3CCCN3C(=O)OC(C)(C)C)[C@H]3COC(=O)[C@H]23)OCO4)cc(OC)c1OC,1.73,50.8,124,0.6,3.23
CCCCCCCCCCCCCCCCCC(=O)O[C@H]1c2cc3c(cc2[C@@H](c2cc(OC)c(OC)c(OC)c2)[C@H]2C(=O)OC[C@@H]21)OCO3,2.6,141,> 200,7.33,3.07
C/C=C/C(=O)O[C@H]1c2cc3c(cc2[C@@H](c2cc(OC)c(OC)c(OC)c2)[C@H]2C(=O)OC[C@@H]21)OCO3,0.0124,109,80.9,0.0402,0.0795
C/C=C/C=C/C(=O)O[C@H]1c2cc3c(cc2[C@@H](c2cc(OC)c(OC)c(OC)c2)[C@H]2C(=O)OC[C@@H]21)OCO3,1.09,2.34,127,0.143,0.424
CCCCCCCCCCCC(=O)O[C@H]1c2cc3c(cc2[C@@H](c2cc(OC)c(OC)c(OC)c2)[C@H]2C(=O)OC[C@@H]21)OCO3,1.25,53.1,> 200,0.539,0.936
COc1cc([C@@H]2c3cc4c(cc3[C@H](OC(=O)c3cccs3)[C@H]3COC(=O)[C@H]23)OCO4)cc(OC)c1OC,0.77,26.9,26.5,0.0684,0.672
COc1cc([C@@H]2c3cc4c(cc3[C@H](OC(=O)[C@H](Cc3c[nH]c5ccccc35)NC(=O)OC(C)(C)C)[C@H]3COC(=O)[C@H]23)OCO4)cc(OC)c1OC,0.00607,> 200,> 200,0.315,1.8
COc1cc([C@@H]2c3cc4c(cc3[C@H](OC(=O)[C@H](Cc3ccccc3)NC(=O)OC(C)(C)C)[C@H]3COC(=O)[C@H]23)OCO4)cc(OC)c1OC,0.0201,> 200,72.4,0.0234,2.46
